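A five-concentration, 48-hour dose response in 96-well plates underlies each endpoint, interpolated linearly between surrounding concentrations. The concentration for 50% growth inhibition is given as GI50.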 The source made the active and inactive calls. Rule as the data show it: active = GI50 up to about 1.1 µM and inactive = higher.
Key:
Experiment in all cases: growth of human tumour cells (NCI), 48 h
RXF 631 = tested on: RXF 631
XF498 = tested on: XF498
HOP-18 = tested on: HOP-18
SNB-78 = tested on: SNB-78
DLD-1 = tested on: DLD-1
DMS-114 = tested on: DMS-114
M19-MEL = tested on: M19-MEL
DMS-273 = tested on: DMS-273
KM-20L2 = tested on: KM-20L2

## CCCCCCCCCCCCCCCc1nnc(SCC(=O)O)[nH]1
RXF 631
  GI50: 19.6 µM (inactive)
XF498
  GI50: 65.8 µM (inactive)
HOP-18
  GI50: > 100 µM (inactive)
SNB-78
  GI50: > 100 µM (inactive)
DLD-1
  GI50: 23.4 µM (inactive)

## Cc1cc2c3c(coc3c1-c1c(C)cc3c4c(coc14)C(=O)C(O)=C3C(C)C)C(=O)C(O)=C2C(C)C
RXF 631
  GI50: 8.71 µM (inactive)
DMS-114
  GI50: 2.63 µM (inactive)
XF498
  GI50: 4.79 µM (inactive)
SNB-78
  GI50: 9.44 µM (inactive)
M19-MEL
  GI50: 7.03 µM (inactive)
DMS-273
  GI50: 4 µM (inactive)
DLD-1
  GI50: 4.6 µM (inactive)
KM-20L2
  GI50: 6.04 µM (inactive)

## CC(C)C(=O)/C=C/c1ccc(Cl)cc1
DMS-114
  GI50: 16.9 µM (inactive)
XF498
  GI50: 7.78 µM (inactive)
HOP-18
  GI50: 4.9 µM (inactive)
M19-MEL
  GI50: 14.4 µM (inactive)
DMS-273
  GI50: 3.99 µM (inactive)
DLD-1
  GI50: 11.9 µM (inactive)
KM-20L2
  GI50: 26.2 µM (inactive)

## COc1cc2c(cc1O)C=NCC2
DMS-114
  GI50: > 100 µM (inactive)
XF498
  GI50: > 100 µM (inactive)
SNB-78
  GI50: > 100 µM (inactive)
M19-MEL
  GI50: > 100 µM (inactive)
DMS-273
  GI50: > 100 µM (inactive)
DLD-1
  GI50: > 100 µM (inactive)
KM-20L2
  GI50: > 100 µM (inactive)

## CCSC(SCC)=C1C(=O)N(c2ccccc2)N=C1C
XF498
  GI50: 10.6 µM (inactive)
HOP-18
  GI50: 13.2 µM (inactive)
SNB-78
  GI50: 18.6 µM (inactive)
M19-MEL
  GI50: 0.378 µM (active)
DMS-273
  GI50: 16.1 µM (inactive)
DLD-1
  GI50: 11.8 µM (inactive)
KM-20L2
  GI50: 16.8 µM (inactive)

## COc1cc(C2c3cc4c(cc3[C@@H](N(C)c3ccc(N(C)C)cc3)C3COC(=O)C23)OCO4)cc(OC)c1O (stereo partly specified)
RXF 631
  GI50: 0.357 µM (active)
DMS-114
  GI50: 0.264 µM (active)
XF498
  GI50: 0.286 µM (active)
HOP-18
  GI50: 13.4 µM (inactive)
M19-MEL
  GI50: 0.721 µM (active)
DMS-273
  GI50: 0.291 µM (active)
DLD-1
  GI50: 0.443 µM (active)
KM-20L2
  GI50: 0.21 µM (active)

## O=C(c1cccs1)N(C(=S)N1CCN(c2ccccn2)CC1)C1CCCCC1
DMS-114
  GI50: 36.9 µM (inactive)
HOP-18
  GI50: > 100 µM (inactive)
SNB-78
  GI50: > 100 µM (inactive)
DMS-273
  GI50: 43.1 µM (inactive)
DLD-1
  GI50: 63.8 µM (inactive)
KM-20L2
  GI50: 70.6 µM (inactive)

## CC1(C)C(=O)C(C)(C)C1=NN
DMS-114
  GI50: > 100 µM (inactive)
XF498
  GI50: > 100 µM (inactive)
SNB-78
  GI50: > 100 µM (inactive)
M19-MEL
  GI50: > 100 µM (inactive)
DMS-273
  GI50: > 100 µM (inactive)
DLD-1
  GI50: > 100 µM (inactive)
KM-20L2
  GI50: > 100 µM (inactive)

## Cc1cc(C=O)c2c(=O)c3c(O)ccc(/C=C/C(C)C)c3oc2c1
DMS-114
  GI50: 41.4 µM (inactive)
M19-MEL
  GI50: 36.7 µM (inactive)
DMS-273
  GI50: 48.3 µM (inactive)
DLD-1
  GI50: 70.1 µM (inactive)
KM-20L2
  GI50: > 100 µM (inactive)

## CCCCc1c2c(nc3c1CC/C(=C\c1ccccc1)C3=O)CCCC2
DMS-114
  GI50: 7.74 µM (inactive)
SNB-78
  GI50: 2.99 µM (inactive)
M19-MEL
  GI50: 4.72 µM (inactive)
DMS-273
  GI50: 2.59 µM (inactive)
DLD-1
  GI50: 3.38 µM (inactive)
KM-20L2
  GI50: 3.59 µM (inactive)

## O=C1C(NCCO)=C(N2CC2)C(=O)C(NCCO)=C1N1CC1
DMS-114
  GI50: 19.5 µM (inactive)
XF498
  GI50: 53.3 µM (inactive)
HOP-18
  GI50: > 100 µM (inactive)
SNB-78
  GI50: > 100 µM (inactive)
M19-MEL
  GI50: 28.5 µM (inactive)
DMS-273
  GI50: 5.46 µM (inactive)
DLD-1
  GI50: > 46.2 µM (inactive)
KM-20L2
  GI50: > 100 µM (inactive)

## Cc1ccc(NC(=O)CC/C(CC(=O)c2ccc(Cl)cc2)=N\NC(=O)C(=O)NN)cc1C
DMS-114
  GI50: > 100 µM (inactive)
XF498
  GI50: > 100 µM (inactive)
HOP-18
  GI50: > 100 µM (inactive)
SNB-78
  GI50: > 100 µM (inactive)
M19-MEL
  GI50: > 100 µM (inactive)
DMS-273
  GI50: > 100 µM (inactive)
DLD-1
  GI50: > 100 µM (inactive)
KM-20L2
  GI50: > 100 µM (inactive)

## O=[N+]([O-])c1ccc(C[P+]2(c3ccccc3)CCCCC2)cc1.[O-][Cl+3]([O-])([O-])[O-]
DMS-114
  GI50: > 100 µM (inactive)
XF498
  GI50: < 0.01 µM (active)
HOP-18
  GI50: > 100 µM (inactive)
DMS-273
  GI50: > 100 µM (inactive)
DLD-1
  GI50: > 100 µM (inactive)
KM-20L2
  GI50: > 100 µM (inactive)

## CC1=C(C(=O)Nc2cc(F)c(F)cc2F)C(c2cccc([N+](=O)[O-])c2)C(C(=O)Nc2ccccc2C(F)(F)F)=C(C)N1 (stereo unspecified)
RXF 631
  GI50: 19.2 µM (inactive)
DMS-114
  GI50: 17 µM (inactive)
SNB-78
  GI50: 19.5 µM (inactive)
M19-MEL
  GI50: 27.2 µM (inactive)
DLD-1
  GI50: 25.3 µM (inactive)
KM-20L2
  GI50: 23.8 µM (inactive)

## N#C/C(=C(/S)Nc1ccccc1)c1nc2ccccc2[nH]1
DMS-114
  GI50: > 10 µM (inactive)
XF498
  GI50: > 10 µM (inactive)
HOP-18
  GI50: > 10 µM (inactive)
M19-MEL
  GI50: > 10 µM (inactive)
DMS-273
  GI50: > 10 µM (inactive)
DLD-1
  GI50: > 10 µM (inactive)
KM-20L2
  GI50: > 10 µM (inactive)

## CCOc1ccc(NCc2cc(OC)c(OC)c(OC)c2)cc1
DMS-114
  GI50: 0.291 µM (active)
DLD-1
  GI50: 0.807 µM (active)
KM-20L2
  GI50: 0.333 µM (active)

## CCN(c1ccccc1)[C@H]1C(=O)N(c2ccc([N+](=O)[O-])cc2)[C@H]1c1ccc(OC)cc1
RXF 631
  GI50: 35.8 µM (inactive)
DMS-114
  GI50: > 100 µM (inactive)
SNB-78
  GI50: > 100 µM (inactive)
M19-MEL
  GI50: 61.7 µM (inactive)
DMS-273
  GI50: > 100 µM (inactive)
DLD-1
  GI50: > 100 µM (inactive)

## COC(=O)Cc1c([C@@]2(C)CCCC(C)(C)C2)ccc2c1C(=O)OC2
RXF 631
  GI50: 12.9 µM (inactive)
DMS-114
  GI50: 3.96 µM (inactive)
HOP-18
  GI50: 18.3 µM (inactive)
SNB-78
  GI50: 14.9 µM (inactive)
M19-MEL
  GI50: 15.1 µM (inactive)
DMS-273
  GI50: 5.43 µM (inactive)
DLD-1
  GI50: 3.62 µM (inactive)

## CC(=O)C1Cn2c(=O)c3cc4ccccc4cc3c(=O)n2C=C1C (stereo unspecified)
RXF 631
  GI50: > 100 µM (inactive)
DMS-114
  GI50: > 100 µM (inactive)
XF498
  GI50: > 100 µM (inactive)
SNB-78
  GI50: > 100 µM (inactive)
M19-MEL
  GI50: > 100 µM (inactive)
DMS-273
  GI50: > 100 µM (inactive)
DLD-1
  GI50: > 100 µM (inactive)
KM-20L2
  GI50: > 100 µM (inactive)

## CCOP1(=O)C=CC(Cl)=C(C)C1 (stereo unspecified)
DMS-114
  GI50: 15.6 µM (inactive)
XF498
  GI50: 19 µM (inactive)
HOP-18
  GI50: 17.4 µM (inactive)
SNB-78
  GI50: 18.9 µM (inactive)
M19-MEL
  GI50: 21.6 µM (inactive)
DLD-1
  GI50: 6.97 µM (inactive)
KM-20L2
  GI50: 16.9 µM (inactive)

## C=C1C(C)C2C(Cc3ccccc3)NC(=O)C23C(OC(C)=O)C=CC(C)(O)C(=O)C(C)C/C=C/C3C1O (stereo unspecified)
RXF 631
  GI50: 0.117 µM (active)
DMS-114
  GI50: 8.71 µM (inactive)
XF498
  GI50: 2.01 µM (inactive)
SNB-78
  GI50: 0.116 µM (active)
M19-MEL
  GI50: 16.1 µM (inactive)
DMS-273
  GI50: 1.96 µM (inactive)
DLD-1
  GI50: 0.78 µM (active)
KM-20L2
  GI50: 0.158 µM (active)

## COc1ccc(C[C@]23CCC(=O)N2CCc2cc(OC)c(O)cc23)cc1O
RXF 631
  GI50: > 100 µM (inactive)
DMS-114
  GI50: > 100 µM (inactive)
HOP-18
  GI50: > 100 µM (inactive)
SNB-78
  GI50: > 100 µM (inactive)
M19-MEL
  GI50: > 100 µM (inactive)
DMS-273
  GI50: > 100 µM (inactive)
KM-20L2
  GI50: > 100 µM (inactive)

## CCOC(=O)NC1=C(N2CC2)C(=O)C(NC(=O)OCC)=C(N2CC2)C1=O [DIAZIQUONE]
DMS-114
  GI50: 2.01 µM (inactive)
XF498
  GI50: 3.67 µM (inactive)
HOP-18
  GI50: 6.35 µM (inactive)
SNB-78
  GI50: 7.36 µM (inactive)
M19-MEL
  GI50: 5.38 µM (inactive)
DMS-273
  GI50: 0.596 µM (active)
DLD-1
  GI50: 7.38 µM (inactive)
KM-20L2
  GI50: 6.93 µM (inactive)

## COc1ccc(CNc2cc(OC)cc(OC)c2)cc1
DMS-114
  GI50: 39.4 µM (inactive)
XF498
  GI50: 63.5 µM (inactive)
SNB-78
  GI50: 29.6 µM (inactive)
M19-MEL
  GI50: 72.3 µM (inactive)

## NC1=NN(c2ccccc2)C(=O)C1/C(=N\NC(=O)c1cc2ccccc2cc1O)C(=O)Nc1cccc(C(F)(F)F)c1 (stereo unspecified)
DMS-114
  GI50: 24.8 µM (inactive)
XF498
  GI50: 64.9 µM (inactive)
HOP-18
  GI50: 21.2 µM (inactive)
SNB-78
  GI50: 44 µM (inactive)
M19-MEL
  GI50: 35.2 µM (inactive)
DLD-1
  GI50: 36.6 µM (inactive)
KM-20L2
  GI50: 32.6 µM (inactive)

— ChEMBL document CHEMBL1201862, “PubChem BioAssay data set” (2004)
